# Laboratory results: patent US20020082241A1, “Adenosine as antithrombotic” (priority 2000, published 2002)
# How the values were obtained:
# [1] = tested on: thrombus formation in mesenteric vein; assay: thrombus formation in vivo in mesenteric vein of rats (electrical stimulation); settings: rat
# Procedure: The thrombus formation in vivo in mesenteric vein of rats was used for evaluating an effect of the compound on the inhibition of venous thrombosis. In brief, groups of 3 male Wistar-derived rats, each weighing 60±10 gm, were used for each dosage test. The rats were anesthetized with phenobarbital sodium (50 mg/kg, i.p.), and paralyzed with succinylcholine chloride (2 mg/rat, i.p.). A mesenteric loop and vein was then exposed and mounted on a constructed platform. The exposed area was superfused with a normal saline at 37° C. except during electrode placement and stimulation. With the aid of a dissecting microscope and micromanipulator, a monopolar platinum electrode was brought into and contact with the vein. […] The relative venous occlusion (a measured degree of thrombus formation) was determined as a percentage of venous diameter (0.36 to 0.3 8 mm) and was recorded at 10 seconds (baseline control score) and at 1 minute interval for 20 minutes. […] In the vehicle-treated animals, the 20-minute interval recorded values were averaged, which attains a value ranging from 45 to 55% of the interval vein diameter. Consequently, the antithrombic activity of the compound was calculated as % of inhibition relative to the vehicle-treated control animals. […]
# [2] = acute toxicity in adult rats, single intravenous dose; format: in vivo; settings: rat, single i.v. dose, up to approximately 70 mg/kg (69.55±5.65 mg/kg), necropsy Day 8
# Procedure: The potential acute toxicity of the compound in adult rats when administered intravenously as a single dose was examined. Twenty animals were divided into five treatment groups of two males and two females each as follows: Group 1: vehicle control; Group 2: 1 mg of the compound/kg body weight of animal; Group 3: 10 mg of the compound/kg body weight of animal; Group 4: 50 mg of the compound/kg body weight of animal; and Group 5: 100 mg of the compound/kg body weight of animal. The tested article was reconstituted with 0.9% sodium chloride injection to provide 0.64±0.05 mg/kg (Group 2), 6.89±1.13 mg/kg (Group 3), 35.02±5.02 mg/kg (Group 4) and 69.55±5.65 mg/kg (Group 5). Animals were dosed on Day 1, and scheduled necropsies conducted on Day 8 included gross examination of organs and tissues, organ weight measurements, and tissue collection for potential histopathological examination. It was found in the compound treatment groups that there was no change in clinical observations, serum chemistry, hematology, gross examination, body weight and organ weight (absolute and relative) that could be attributed to the compound.
# platelet aggregation = assay: ADP-activated platelet aggregation assay; format: cell-based
# Procedure: To assay the platelet aggregation-inhibiting activity of the compound, a regular ADP-activated platelet aggregation assay was performed. The reagents used for conducting the assay were purchased from Sigma. […] The maximal inhibition activity was about 85%, which occurs at the concentration of the compound from 10 to 15 μg/ml blood.
# [3] = molecular target: T1, platelet membrane receptor protein gpIIb/IIIa (Homo sapiens, UniProt P05106+P08514); assay: gpIIb/IIIa binding assay with compound spotted on plate and labeled gpIIb/IIIa; settings: concentration of the compound below 10 μg/ml; serial dilution 0 to 50 μg/ml; FIG. 5
# T1 construct: platelet membrane receptor protein gpIIb/IIIa was purified from platelets; from tissue; host or cells: platelets
# Procedure: For conducting the target-binding assay, platelet membrane receptor protein gpIIb/IIIa was purified from platelets, and its purity was determined by SDS-PAGE and silver staining. The purified protein gpIIb/IIIa was labeled with biotin as described in the conventional protocol. The 120 collected samples were individually coated onto a 384-well plastic plate. The biotin-labeled protein gpIIb/IIIa was added to the sample-coated plastic plate and was incubated with the coated samples at room temperature for 30 minutes. Each well was then washed with TBST buffer for 3 times, to which the extravidin-conjugated alkaline phosphatase was added, and each well was further incubated for 30 minutes. The previous washing step was repeated and each well was then colored with substrate p-nitrophenyl phosphate. The absorption for each well at a wavelength of 405 nm was determined by an automatic ELISA reader (Dynax). […] The compound “adenosine” obtained from Example 4 was used as a standard for the characterization of each batch preparation of the compound. The compound, when purified, was collected, dried and used to verify its gpIIb/IIIa binding capacity. For conducting the binding assay, the compound was formulated into an aqueous solution, and a serial dilution for forming a final concentration of 0 to 50 μg/ml was made. […]
# [4] = molecular target: T2, gpIIb/IIIa (binding of fibrinogen) (Homo sapiens, UniProt P05106+P08514); assay: competitive ELISA for inhibition of the binding of fibrinogen to gpIIb/IIIa; settings: samples 5-60 μg/ml; biotin-labeled fibrinogen 1.5 μg/ml; 37° C.; OD value; FIG. 8
# T2 construct: The gpIIb/IIIa purified from platelet was coated on flat wells of a plastic 96-well plate; from tissue; host or cells: platelets
# Procedure: A competitive ELISA assay for analyzing that the binding of fibrinogen to gpIIb/IIIa is inhibited was performed for comparative analysis, where the compound, commercial adenosine (a product from Sigma, Cat. A-9251, Lot. 18H0295) and ReoPro® (abciximab) (10 mg/ml; produced by Eli Lilly for laboratory use only, Lot. 97F03, which is a monoclonal antibody and an antagonist against gpIIb/IIIa) were tested. The gpIIb/IIIa purified from platelet was coated on flat wells of a plastic 96-well plate. Samples of each of the test compounds were prepared in a concentration in a range of 5-60 μg/ml. A solution of biotin-labeled fibrinogen was prepared in a concentration of 1.5 μg/ml. Prior to addition to the wells, each of the samples were individually mixed with an equal volume of the biotinylated fibrinogen. The competitive binding reaction in the plate was performed at 37° C. for 2 hours. After another 2 hours for incubation, strepavidin-conjugated alkaline phosphatase was added to each well of the plate. A substrate solution containing p-nitrophenyl phosphate was then added to each well for coloring by a conventional way. The capability of each tested compound in the inhibition of the binding of fibrinogen to gpIIb/IIIa was measured and recorded as OD value.
# T2 sequence (P08514 32-887 limits assumed): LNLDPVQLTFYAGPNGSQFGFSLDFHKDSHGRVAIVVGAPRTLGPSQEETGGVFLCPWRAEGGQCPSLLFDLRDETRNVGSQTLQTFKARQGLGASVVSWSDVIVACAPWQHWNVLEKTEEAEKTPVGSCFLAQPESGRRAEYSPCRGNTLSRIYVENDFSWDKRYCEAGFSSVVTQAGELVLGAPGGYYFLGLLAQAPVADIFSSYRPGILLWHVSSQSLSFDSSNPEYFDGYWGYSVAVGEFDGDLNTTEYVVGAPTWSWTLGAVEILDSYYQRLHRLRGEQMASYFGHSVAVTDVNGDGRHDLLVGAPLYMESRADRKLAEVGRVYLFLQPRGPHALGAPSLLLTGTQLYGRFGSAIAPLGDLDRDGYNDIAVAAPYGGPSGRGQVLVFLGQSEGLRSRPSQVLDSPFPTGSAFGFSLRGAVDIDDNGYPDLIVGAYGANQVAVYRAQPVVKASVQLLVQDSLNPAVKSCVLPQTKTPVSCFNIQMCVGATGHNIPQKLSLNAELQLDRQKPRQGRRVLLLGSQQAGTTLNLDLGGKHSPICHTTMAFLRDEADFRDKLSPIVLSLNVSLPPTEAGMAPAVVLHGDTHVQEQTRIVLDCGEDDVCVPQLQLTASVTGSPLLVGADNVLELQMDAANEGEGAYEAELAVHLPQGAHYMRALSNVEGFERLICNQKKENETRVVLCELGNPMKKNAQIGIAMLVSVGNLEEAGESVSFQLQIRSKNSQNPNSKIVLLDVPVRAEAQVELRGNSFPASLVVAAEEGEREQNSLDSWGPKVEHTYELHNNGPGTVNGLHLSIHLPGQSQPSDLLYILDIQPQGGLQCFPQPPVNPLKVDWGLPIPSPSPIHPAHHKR
# T2 sequence (P08514 891-1039 limits assumed): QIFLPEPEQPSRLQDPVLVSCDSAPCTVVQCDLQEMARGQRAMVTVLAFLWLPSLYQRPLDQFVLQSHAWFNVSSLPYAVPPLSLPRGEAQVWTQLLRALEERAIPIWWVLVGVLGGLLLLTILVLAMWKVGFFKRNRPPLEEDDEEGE
# T2 sequence (P05106 27-788): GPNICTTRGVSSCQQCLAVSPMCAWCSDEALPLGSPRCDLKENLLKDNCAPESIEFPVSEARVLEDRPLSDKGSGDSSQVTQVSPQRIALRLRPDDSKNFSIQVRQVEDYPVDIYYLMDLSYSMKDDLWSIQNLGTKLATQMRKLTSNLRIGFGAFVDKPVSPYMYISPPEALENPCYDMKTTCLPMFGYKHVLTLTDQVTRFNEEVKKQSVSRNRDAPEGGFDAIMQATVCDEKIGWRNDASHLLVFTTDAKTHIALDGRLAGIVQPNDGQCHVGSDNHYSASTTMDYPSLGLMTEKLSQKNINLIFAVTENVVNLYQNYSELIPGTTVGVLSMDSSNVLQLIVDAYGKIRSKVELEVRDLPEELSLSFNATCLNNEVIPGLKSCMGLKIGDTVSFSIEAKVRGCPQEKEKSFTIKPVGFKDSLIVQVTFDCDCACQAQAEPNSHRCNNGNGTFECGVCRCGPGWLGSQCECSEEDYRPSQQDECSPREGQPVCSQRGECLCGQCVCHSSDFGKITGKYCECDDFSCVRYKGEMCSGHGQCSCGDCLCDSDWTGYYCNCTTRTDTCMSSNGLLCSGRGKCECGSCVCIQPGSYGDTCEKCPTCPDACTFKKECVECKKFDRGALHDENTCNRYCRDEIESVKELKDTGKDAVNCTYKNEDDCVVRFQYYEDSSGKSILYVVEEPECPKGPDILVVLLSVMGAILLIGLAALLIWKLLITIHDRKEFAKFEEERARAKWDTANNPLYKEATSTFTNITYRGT
# T1 sequence (P08514 32-887 limits assumed): as the sequence (P08514 32-887 limits assumed) above
# T1 sequence (P08514 891-1039 limits assumed): as the sequence (P08514 891-1039 limits assumed) above
# T1 sequence (P05106 27-788): as the sequence (P05106 27-788) above
structure (smiles),measurement,setting,value
"Nc1ncnc2c1ncn2[C@@H]1O[C@H](CO)[C@@H](O)[C@H]1O [the compound, adenosine]","antithrombic activity relative to vehicle treated group, i.v.","[1]; 400 μg/rat i.v. 5 minutes before stimulation, at 7, 11, 12, 13, 14, 15, 16, 17 and 19 minutes after electric stimulation, FIG. 7A",significance relative to the vehicle treated group
same,"antithrombic activity relative to vehicle treated group, oral","[1]; 4 mg/rat oral feeding 1 hour prior to stimulation, observed at 14, 15, 16, 17, 18 and 20 minutes, FIG. 7C",significant antithrombic activity
same,acute toxicity,[2],No signs of overt toxicity
same,acute toxicity,[2]; listed as adenosine,no acute toxicity
same,inhibition at 17.4 µg/mL,"platelet aggregation; Platelet, 17.4 μg/ml, occurring from the 14th to 16th minutes, FIG. 6B, read-out: maximal inhibition activity on platelet aggregation (time course)",~85%
same,maximal inhibition activity on platelet aggregation (dose response),"platelet aggregation; at concentration from 10 to 15 μg/ml blood, FIG. 6A",about 85%
same,"binding to gpIIb/IIIa, % of the maximal binding",[3],80%
same,"inhibition of the binding of fibrinogen to gpIIb/IIIa, compared with ReoPro (abciximab)",[4],superior effect
same,"inhibition of the binding of fibrinogen to gpIIb/IIIa, the compound compared with commercial adenosine",[4],quite similar function
